In patent publication US12459951B2, “Compounds that interact with RAS superfamily proteins for treatment of cancers, inflammatory diseases, rasopathies, and fibrotic disease” (SHY Therapeutics, LLC, priority 2022, dated 2025):
Read-outs that look alike come from different tables or passages of the source.

Tests used:
[1] = system: MiaPaca-2 (expressing KRAS G12C mutant); assay: Proliferation Assay (Cell Viability Assay); type: cell-based; details: Homo sapiens, MIA PaCa-2
Procedure, shortened: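 After 2–4 days' exposure at 37 °C, 5% CO2 to a single 10 μM final concentration or a dilution series (IC50), percent proliferation inhibition was derived from CellTiter 96 Aqueous One viability readings. The medium contained 0.3% DMSO and 10% FBS. KRAS G12C MiaPaca-2 cells were plated at 2000–5000/well the day before.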

[2] = system: KRas G12D mutant; assay: Ras GTP Binding Domain Inhibition Assay (Ras Superfamily Assay); details: for KRas G12D mutant + SOS: % inh.: with SOS; for KRas G12D mutant: % inh.: without SOS
Procedure, shortened: (§1)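 His-tagged GTPases immobilised on nickel-coated plates, pre-incubated with compound (20 μM single point, or serial dilution for IC50) 3 h at room temperature, with or without 10-30 μg/mL Sos (residues 556-1049) in the final hour. Bound Cy3- or Cy5-GTP (100 nM, 45 min) measured by fluorescence after washing.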

[3] = molecular target: T1, Rac-1 (Homo sapiens, UniProt P63000); assay: as above; details: read-out: Rac-1: % inh.
T1 construct: made in house
Procedure, shortened: as §1

[4] = system: KRas wild type; assay: as above; details: for KRas wild type + SOS: % inh.: with SOS; for KRas wild type: % inh.: without SOS
Procedure, shortened: as §1

[5] = read-out: Proliferation in MiaPaca-2: IC50

SMILES | IC50 [1, 5] | KRas G12D mutant + SOS: % inh. ([2]; at 20 μM) | KRas G12D mutant: % inh. ([2]; at 20 μM) | inhibition at 20 µM [3] | KRas wild type + SOS: % inh. ([4]; at 20 μM) | KRas wild type: % inh. ([4]; at 20 μM) | KRas G12D mutant + SOS: % inh. ([2]; 20 μM compound) | KRas G12D mutant: % inh. ([2]; 20 μM compound) | KRas wild type + SOS: % inh. ([4]; 20 μM compound) | KRas wild type: % inh. ([4]; 20 μM compound) | IC50 ([1]; Proliferation assay, MiaPaca-2, read-out: MiaPaca-2 IC50 (nM) Pancreatic)
Cn1ccnc1-c1nc(O)c2c(-c3ccccc3)c(-c3cccnc3)cn2n1 [Compound 189, 2-(1-Methyl-1H-imidazol-2-yl)-5-phenyl-6-(pyridin-3-yl)pyrrolo[2,1-f][1,2,4]triazin-4-ol] | > 1000 nM | A (A = 1-25% inhibition) | A (A = 1-25% inhibition) | 1 to 25% | 0 (0 = 0% inhibition) | 0 (0 = 0% inhibition) |  |  |  |  | 
COc1ccnc(Nc2nc(-c3nccn3C)nn3cc(-c4ccn(C)n4)c(C(=O)NCC(F)(F)F)c23)c1 [Compound 174, 4-((4-Methoxypyridin-2-yl)amino)-2-(1-methyl-1H-imidazol-2-yl)-6-(1-methyl-1H-pyrazol-3-yl)-N-(2,2,2-trifluoro-ethyl)pyrrolo[2,1-f][1,2,4]triazine-5-carboxamide] | 150 to 500 nM |  |  | 50 to 75% |  |  | B (B = 26-49% inhibition) | B (B = 26-49% inhibition) | B (B = 26-49% inhibition) | B (B = 26-49% inhibition) | 
CO[C@H]1C[C@H](Nc2nc(-c3nccn3C)nn3cc(-c4ccccc4)c(-c4ccccc4)c23)C1 [Compound 203, N-((1r,3r)-3-Methoxycyclobutyl)-2-(1-methyl-1H-imidazol-2-yl)-5,6-diphenylpyrrolo[2,1-f][1,2,4]triazin-4-amine] | 510 to 1000 nM | 0 (0 = 0% inhibition) | 0 (0 = 0% inhibition) | 1 to 25% | 0 (0 = 0% inhibition) | 0 (0 = 0% inhibition) |  |  |  |  | 
Cc1c(-c2ccn(C)n2)cn2nc(-c3nccn3C)nc(Nc3cc(N4CCOCC4)ccn3)c12 [Compound 222, 5-Methyl-2-(1-methyl-1H-imidazol-2-yl)-6-(1-methyl-1H-pyrazol-3-yl)-N-(4-morpholinopyridin-2-yl)pyrrolo[2,1-f][1,2,4]triazin-4-amine] | < 150 nM | D (D = 76-100% inhibition) | D (D = 76-100% inhibition) | 76 to 100% | D (D = 76-100% inhibition) | D (D = 76-100% inhibition) |  |  |  |  | 1 to 10 nM
CO[C@H]1CC[C@H](Nc2nc(-c3nccn3C)nn3cc(-c4ccn(C)n4)c(C(=O)NCC(F)(F)F)c23)C1 (racemic) [Compound 181, 4-(((1S,3S)-3-Methoxycyclopentyl)amino)-2-(1-methyl-1H-imidazol-2-yl)-6-(1-methyl-1H-pyrazol-3-yl)-N-(2,2,2-trifluoroethyl)pyrrolo[2,1-f][1,2,4]triazine-5-carboxamide] | > 1000 nM |  |  | 1 to 25% |  |  | 0 (0 = 0% inhibition) | A (A = 1-25% inhibition) | A (A = 1-25% inhibition) | A (A = 1-25% inhibition) | 
Cc1c(-c2ccn(C)n2)cn2nc(-c3nccn3C)nc(N)c12 [Compound 211, 5-Methyl-2-(1-methyl-1H-imidazol-2-yl)-6-(1-methyl-1H-pyrazol-3-yl)pyrrolo[2,1-f][1,2,4]triazin-4-amine] | > 1000 nM | C (C = 50-75% inhibition) | C (C = 50-75% inhibition) | 50 to 75% | D (D = 76-100% inhibition) | C (C = 50-75% inhibition) |  |  |  |  | 
Cc1c(-c2ccn(C)n2)cn2nc(-c3nccn3C)nc(Nc3ccc(N4CCCC4)cn3)c12 [Compound 228, 5-Methyl-2-(1-methyl-1H-imidazol-2-yl)-6-(1-methyl-1H-pyrazol-3-yl)-N-(5-(pyrrolidin-1-yl)pyridin-2-yl)pyrrolo[2,1-f][1,2,4]triazin-4-amine] | < 150 nM | C (C = 50-75% inhibition) | D (D = 76-100% inhibition) | 76 to 100% | C (C = 50-75% inhibition) | C (C = 50-75% inhibition) |  |  |  |  | 
COCCNc1nc(-c2nccn2C)nn2cc(-c3cccc(OC)c3Cl)c(C)c12 [Compound 16, 6-(2-Chloro-3-methoxyphenyl)-N-(2-methoxyethyl)-5-methyl-2-(1-methyl-1H-imidazol-2-yl)pyrrolo[2,1-f][1,2,4]triazin-4-amine] | > 1000 nM |  |  | 0% |  |  | 0 (0 = 0% inhibition) | A (A = 1-25% inhibition) | A (A = 1-25% inhibition) | 0 (0 = 0% inhibition) | 
Cc1c(-c2ccn(C)n2)cn2nc(-c3nccn3C)nc(O)c12 [Compound 172, 5-Methyl-2-(1-methyl-1H-imidazol-2-yl)-6-(1-methyl-1H-pyrazol-3-yl)pyrrolo[2,1-f][1,2,4]triazin-4-ol] | > 1000 nM |  |  | 26 to 49% |  |  | B (B = 26-49% inhibition) | B (B = 26-49% inhibition) | B (B = 26-49% inhibition) | B (B = 26-49% inhibition) | 
CCNC(=O)c1c(-c2ccn(C)n2)cn2nc(-c3nccn3C)nc(Nc3cc(OC)ccn3)c12 [Compound 173, N-Ethyl-4-((4-methoxypyridin-2-yl)amino)-2-(1-methyl-1H-imidazol-2-yl)-6-(1-methyl-1H-pyrazol-3-yl)pyrrolo[2,1-f][1,2,4]triazine-5-carboxamide] | 510 to 1000 nM |  |  | 50 to 75% |  |  | C (C = 50-75% inhibition) | B (B = 26-49% inhibition) | D (D = 76-100% inhibition) | C (C = 50-75% inhibition) | 
COc1ccnc(Nc2nc(-c3nccn3C)nn3cc(-c4ccn(CCN)n4)c(C)c23)c1 [Compound 187, 6-(1-(2-Aminoethyl)-1H-pyrazol-3-yl)-N-(4-methoxypyridin-2-yl)-5-methyl-2-(1-methyl-1H-imidazol-2-yl)pyrrolo[2,1-f][1,2,4]triazin-4-amine] | > 1000 nM | D (D = 76-100% inhibition) | D (D = 76-100% inhibition) | 76 to 100% | D (D = 76-100% inhibition) | D (D = 76-100% inhibition) |  |  |  |  | 
COc1cccc(-c2cn3nc(-c4nccn4C)nc(N[C@H]4C[C@H](OC)C4)c3c2-c2ccccc2)c1OC [Compound 219, 6-(2,3-Dimethoxyphenyl)-N-((1r,3r)-3-methoxycyclobutyl)-2-(1-methyl-1H-imidazol-2-yl)-5-phenylpyrrolo[2,1-f][1,2,4]triazin-4-amine] | 510 to 1000 nM | 0 (0 = 0% inhibition) | A (A = 1-25% inhibition) | 1 to 25% | 0 (0 = 0% inhibition) | A (A = 1-25% inhibition) |  |  |  |  | 
CO[C@H]1C[C@@H](Nc2nc(-c3nccn3C)nn3cc(-c4cccnc4)c(-c4ccccc4)c23)C1 [Compound 191, N-((1s,3s)-3-Methoxycyclobutyl)-2-(1-methyl-1H-imidazol-2-yl)-5-phenyl-6-(pyridin-3-yl)pyrrolo[2,1-f][1,2,4]triazin-4-amine] | > 1000 nM | B (B = 26-49% inhibition) | B (B = 26-49% inhibition) | 1 to 25% | B (B = 26-49% inhibition) | A (A = 1-25% inhibition) |  |  |  |  | 
Cc1c(-c2ccn(C)n2)cn2nc(-c3nccn3C)nc(Nc3ccc(C(C)(C)O)cn3)c12 [Compound 241, 2-(6-((5-Methyl-2-(1-methyl-1H-imidazol-2-yl)-6-(1-methyl-1H-pyrazol-3-yl)pyrrolo[2,1-f][1,2,4]triazin-4-yl)amino)pyridin-3-yl)propan-2-ol] | > 1000 nM | D (D = 76-100% inhibition) | D (D = 76-100% inhibition) | 76 to 100% | D (D = 76-100% inhibition) | D (D = 76-100% inhibition) |  |  |  |  | 
